The source of these data is a melting point compilation (Tetko et al.; mined from patent text by program, amines drawn as free bases though some values may be those of a salt).

For `Cc1[nH]cnc1CSCCNC1=C([N+](=O)[O-])CCN1`, the melting point came to 208 °C.

Compound `COC(=O)CN(C)C(=O)CC(Cc1cccc2ccccc12)C(=O)NC(Cc1c[nH]cn1)C(=O)NC(CC(C)C)C(O)C(=O)OC` (mixture of isomers) displayed a melting point of 75 to 79 °C.

In turn, `CCCCN(C)C(=O)CS(=O)CCCCCOc1ccc(C2=C(c3ccccc3)CCCc3cc(O)ccc32)cc1` (centres undefined) showed a melting point of 87 to 89 °C.

In the case of `COC(=O)c1cccc2nc(OC)n(Cc3ccc(-c4ccccc4-c4nc(=O)o[nH]4)cc3)c12`, the melting point was in the range of 215 to 216 °C.

`CC(C)(C)OC(=O)N1C[C@H](O)C[C@H]1C(=O)OC(c1ccccc1)c1ccccc1`: the melting point was in the range of 93 to 95 °C.

`CCOC(=O)CCc1cc(O)nn1CC` displayed a melting point of 91 to 92 °C.

In turn, `N#CC1=C2C(=NC1=O)c1c(Sc3ccc(N)cc3)ccc3c(Sc4ccc(N)cc4)ccc2c13` showed a melting point of 288 to 290 °C.

`Cc1noc(NS(=O)(=O)c2ccccc2-c2ccc(-c3ncco3)cc2CN(CC(F)(F)F)C(=O)C(C)(C)C)c1C` registered a melting point of 146 to 147 °C.

`COc1cc(CSCCNC(=O)c2c(Cl)cccc2Cl)cc(OC)c1` yielded a melting point of 46 to 47 °C.

Consider `CCCCCCCCCCCCCCCCCCOc1cc(N(CC(=O)OC)CC(=O)OC)cc(S(=O)CC(=O)OC)c1` (centres undefined), for which the melting point was 81 to 83 °C.

Compound `C=C1CCN(CC)c2c(CSc3nc4ccccc4[nH]3)cccc21` had a melting point of 148 to 149 °C.

In the case of `CNc1cc2c(cc1Cl)CCN(C)C[C@@H]2c1ccccc1`, the melting point lay in the range of 98 to 100 °C.

With `O=C1C(=O)c2ccccc2C2=C1SCC1(CCN(CC3CCCCO3)CC1)O2` (centres undefined), the melting point is 135 to 137 °C.

`Nc1ncnc2c1ncn2CC/C=C/P(=O)(O)O` displayed a melting point of 263 to 266 °C.

For the compound `Cc1cc(C)cc(CNc2c(NC(C)(C)C)c(=O)c2=O)c1`, the melting point lay in the range of 246 to 248 °C.

For the compound `Cn1nc(-c2c(Cl)cccc2Cl)nc1-c1cccs1`, the melting point was in the range of 161 to 163 °C.

`O=C(NCSc1ncnc2nc[nH]c12)c1ccccc1` returned a melting point of 197 to 200 °C.

The compound `C=CCOc1cccc2oc(C=CC(=O)OCC)c(C)c12` came in with a melting point of 79 to 80 °C.

With `CC(C)OC(=O)c1cc(-n2c(=O)c3c(n(C)c2=O)CCCC3)c(F)cc1Cl`, the melting point was in the range of 113 to 115 °C.

Turning to `CS(=O)(=O)c1ccc(Cl)cc1Cl`, the melting point was determined as 71 °C.

As for `COc1cc2cc[nH]c2cc1OCCCCl`, the melting point lay within 73 to 75 °C.

Consider `Nc1cnc2cccnc2c1Cl`, for which the melting point is 188 to 190 °C.

Take `Cc1ccc(C(=O)Nc2ccc(C)c(-c3nc(N(C)C)nc4c3CNC(=O)N4c3c(F)cccc3F)c2)cc1F`: the melting point fell in the range of 258 to 264 °C.

In turn, `COC1=CC(=O)C2=C(C1=O)C(Cl)C(Cl)CC2` (centres undefined) came in with a melting point of 119 to 123 °C.

Compound `CC(C(=O)OCC(c1cccc(C(F)(F)F)c1)N1CCNCC1)c1ccc2c(c1)CC(C(C)C)C2` (centres undefined) showed a melting point of 56 to 58 °C.

In the case of `COC1CCN(c2cc3c(cc2C#Cc2ccccc2)NC(=O)CC(c2cccc(C#N)c2)=N3)CC1`, the melting point was in the range of 250 to 251 °C.

`CC(C)C(=O)Nc1cc(C(C)(C)C)on1` gave a melting point of 123 to 124 °C.

`Nc1nc2ccccc2c2c1nc1n2C(COCc2ccccc2)COC1` (centres undefined) registered a melting point of 185 to 186 °C.

In the case of `CCOC(=O)C1=C(NC(=O)Nc2cc(C(=O)OC(C)C)c(Br)cc2Cl)CCC1`, the melting point fell in the range of 131 to 132 °C.

In turn, `CN1CCC2(CC1)c1ccccc1Cc1ccccc12` registered a melting point of 132 to 134 °C.

The compound `CN(C)C(=O)c1cc2c(c(C(=O)O)c1)OC(c1ccccc1)(c1ccccc1)O2` displayed a melting point of 207 to 208 °C.

The compound `OC(CCCN1CC=C(c2ncco2)CC1)c1ccc(F)cc1` (centres undefined) displayed a melting point of 100 to 103 °C.

Take `COc1nccc(C)c1NC(=O)c1cccnc1NC1CC1`: the melting point fell in the range of 151 to 152 °C.

Take `CCOC(=O)CC1(NC(C)=O)Cc2ccccc2C1`: the melting point lay within 72 to 73 °C.

For orientation: melting point means the temperature, or range, at which the solid turns liquid.
